Experiments:
[1] = Relaxivity measurements on 1.5-T clinical MRI scanner; assay type: physicochemical
Method: All studies were performed on a 1.5-T clinical MRI scanner (Excite HD, GE Healthcare Technologies, Waukesha, Wis.) equipped with a high-performance gradient hardware package (Cardiac Resonance Module) and multichannel, fast-receiver hardware. The maximal achievable slew rate was 120 mT/m/s, maximal amplitude was 23 mT/m, and receiver bandwidth was 500 kHz. For relaxation measurements, the samples were placed in a room temperature water bath and imaged using a quadrature knee coil. T1-weighted measurements used an inversion recovery spin-echo technique (repetition time [TR]/[…] [TE], 5,000 ms/10 ms; inversion time, 50-4,000 ms). The T2-weighted measurements used a spin echo sequence (TR, 5,000 ms; TE, 20-1,000 ms). T2*-weighted measurements used a multi-echo, fast, gradient echo acquisition (TR, 600 ms; TE, 2-57 ms, with an echo spacing of 3.3 ms). All imaging data were analyzed using in-house software written in MATLAB (MathWorks, Natick, Mass.). The MRI sequences used for the ex vivo experiments have previously been described (see, Shetty, A. M., et al., Journal of Magnetic Resonance Imaging, Vol. 26, pp. 1672-1677 (2007)) and used a high-resolution, three-dimensional, spoiled gradient recalled echo acquisition (TR/TE, 15.6 ms/2.5 ms; flip angle, 60°; voxel size, 0.4×0.4×0.8 mm, receiver bandwidth, 488.3 Hz/pixel). The large flip angle was used to accentuate the signal from the ECAMs (with lower T1-weighted relaxation times) against the background. The high bandwidth and short echo time were chosen to minimize susceptibility artifacts in the region of the titanium markers.
Relaxivity measurements were obtained using the slope of the weighted least-squares regression of the relaxation rate versus concentration. […] The ratio of the relaxivities were >1 (r2/r1=1.21±0.29), which is consistent with T1-weighted positive contrast agents.

[2] = Toxicity arm: single intraprostatic CoCl2-NAC injection, clinical pathology, gross and microscopic pathology; assay type: in vivo, rat
Method: (§1) A toxicity and pharmacokinetic study of intraprostatically-administered cobalt dichloride-N-acetyl cysteine (CoCl2-NAC) was conducted in a rat model by the Pharmaceutical Development Center in the Department of Veterinary Medicine and Surgery (DVMS) facilities, U.T.M.D. Anderson Cancer Center, (Houston, Tex.). CoCl2-NAC is a novel MRI marker for prostate brachytherapy under development for use in localization of implanted radioactive seeds under MRI. […] The purpose of this study was to evaluate the distribution and potential toxicity of Co-NAC systemic exposure secondary to potential leakage from in-situ rupture of the Co-NAC-ECAMs in a male rat model.
(§2) The volume of CoCl2-NAC injected (9 μl) was predetermined on the assumption of 80-120 seeds leaking into the human prostate following implantation and scaling to a 150 gram male rat model. Cobalt disposition in plasma and tissues and organ toxicity were evaluated. For the pharmacokinetic arm, 60 male rats (20/group) were assigned to two dose groups and a vehicle control group and administered 1% (low concentration) and 10% (high concentration) CoCl2-NAC or vehicle control as an injection into the prostate. Following dosing, one cohort of 5 animals from each dose-level was sacrificed at 5, 30, and 60 minutes and 6 hours following the end of drug administration. Specific tissues (spleen, heart, brain, prostate, lung, kidney, liver, gut) from all animals were harvested, blotted, and weighed. An additional 3 animals were administered the high concentration and were maintained individually in metabolic cages. Urine and feces were collected at the end of 60 min, 6 and 24 hr intervals on the day prior to dosing and post dosing the following day. All samples were analyzed for total cobalt content by inductively-coupled plasma (ICP) analysis. For the toxicity arm, 30 male rats (10/group) were assigned to two dose groups and a vehicle control group and administered 1% and 10% CoCl2-NAC or vehicle control injected into the prostate. Groups of animals were sacrificed and necropsied on Study Days 1 (24 hrs) and 14 and blood and tissues collected for evaluation of clinical pathology and organ toxicity.

[3] = T1-weighted MRI visualization of contrast agent in seeds in agarose phantom
Method: Initially, the titanium and acrylic seeds were custom designed to have an outer and inner diameter of 3 mm and 1.5 mm and an outer length and inner hollow length of 4.5 mm and 3.5 mm, respectively. After injection of the cobalt-chloride complex contrast (CoCl2-NAC) agent into the manufactured seeds, MRI was performed on the seeds and strand-like combinations. For the canine prostate experiments, standard nonradioactive titanium seeds were incorporated into a synthesized strand, with acrylic and glass tubes cut with an outer diameter of 0.8 mm and length of 5.5 mm, injected with the CoCl2-NAC agent ([…]), and closed on the ends with two polymer taps.
All studies involving animals or animal tissues were performed under an Institutional Animal Care and Use Committee-approved protocol. For this experiment, after completion of another investigator's in vivo experiments, a canine prostate was excised at necropsy, placed in normal saline, and fixed in agarose gel (10% by weight, Type-A, Sigma-Aldrich, St. Louis, Mo.). The ECAMs were subsequently inserted into the prostate and imaged using MRI. Similarly, the ECAMs were inserted into an in-house-manufactured agarose phantom for direct visualization. The signal intensities of the agarose and prostatic tissue were similar on T1 weighted MRI, allowing substantial preliminary assessment of the relative contrast of the ECAMs without a tissue-based phantom. 1.5-T MRI T1-weighted sequences for imaging marker experiments.
All studies were performed on a 1.5-T clinical MRI scanner (Excite HD, GE Healthcare Technologies, Waukesha, Wis.) equipped with a high-performance gradient hardware package (Cardiac Resonance Module) and multichannel, fast-receiver hardware. The maximal achievable slew rate was 120 mT/m/s, maximal amplitude was 23 mT/m, and receiver bandwidth was 500 kHz. For relaxation measurements, the samples were placed in a room temperature water bath and imaged using a quadrature knee coil. T1-weighted measurements used an inversion recovery spin-echo technique (repetition time [TR]/[…] [TE], 5,000 ms/10 ms; inversion time, 50-4,000 ms). The T2-weighted measurements used a spin echo sequence (TR, 5,000 ms; TE, 20-1,000 ms). T2*-weighted measurements used a multi-echo, fast, gradient echo acquisition (TR, 600 ms; TE, 2-57 ms, with an echo spacing of 3.3 ms). All imaging data were analyzed using in-house software written in MATLAB (MathWorks, Natick, Mass.). […]

[4] = Pharmacokinetic arm: cobalt disposition in plasma, tissues, urine and feces after intraprostatic CoCl2-NAC injection, total cobalt by ICP; assay type: in vivo, rat
Method: as §1
as §2, with “Groups of animals were sacrificed and necropsied on Study Days 1 (24 hrs) and 14 and blood and tissues collected for evaluation of clinical pathology and organ toxicity.” left out

[5] = target: androgen receptor (Homo sapiens, UniProt P10275); conditions: concentration; cited from earlier work
androgen receptor, sequence (P10275 whole entry, species assumed): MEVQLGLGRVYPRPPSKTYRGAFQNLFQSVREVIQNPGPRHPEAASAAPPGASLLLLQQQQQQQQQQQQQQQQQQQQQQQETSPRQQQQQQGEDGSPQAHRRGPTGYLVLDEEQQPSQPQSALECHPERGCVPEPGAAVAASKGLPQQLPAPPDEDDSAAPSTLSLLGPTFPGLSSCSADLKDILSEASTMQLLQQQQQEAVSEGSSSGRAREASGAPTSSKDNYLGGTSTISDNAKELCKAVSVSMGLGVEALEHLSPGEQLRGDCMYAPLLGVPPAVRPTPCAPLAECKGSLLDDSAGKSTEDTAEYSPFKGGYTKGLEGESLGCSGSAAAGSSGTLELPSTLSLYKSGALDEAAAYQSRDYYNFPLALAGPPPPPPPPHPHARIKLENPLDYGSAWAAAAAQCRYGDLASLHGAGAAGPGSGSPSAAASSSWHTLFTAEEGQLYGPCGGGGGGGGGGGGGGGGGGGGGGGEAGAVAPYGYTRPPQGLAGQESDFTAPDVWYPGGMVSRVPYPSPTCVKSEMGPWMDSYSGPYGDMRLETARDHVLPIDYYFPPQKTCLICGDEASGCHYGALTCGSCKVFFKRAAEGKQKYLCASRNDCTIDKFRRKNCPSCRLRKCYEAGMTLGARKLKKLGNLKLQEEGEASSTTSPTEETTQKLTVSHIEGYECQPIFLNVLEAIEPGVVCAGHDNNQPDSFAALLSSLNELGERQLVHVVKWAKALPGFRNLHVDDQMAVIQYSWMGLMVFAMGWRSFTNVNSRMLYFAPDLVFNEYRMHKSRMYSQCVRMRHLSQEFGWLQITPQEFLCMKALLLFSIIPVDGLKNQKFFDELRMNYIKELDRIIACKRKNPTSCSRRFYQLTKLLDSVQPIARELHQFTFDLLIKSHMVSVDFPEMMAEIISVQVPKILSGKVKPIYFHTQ

CC(=O)N[C@@H](CS)C(=O)O.[Cl][Co][Cl] [CoCl2-NAC, cobalt-dichloride-N-acetyl cysteine]
ratio of the relaxivities r2/r1 [1]: 1.21±0.29
spin-lattice relaxivity (r1) ([1]; room temperature water bath): 0.093 ± 0.022 mM⁻¹ s⁻¹
spin-spin relaxivity (r2) ([1]; room temperature water bath): 0.105 ± 0.01 mM⁻¹ s⁻¹
alterations in group means of hematological or clinical chemistry parameters ([2]; 1% and 10% CoCl2-NAC, Study Days 1 and 14): No toxicologically-important dose-related alterations
microscopic examination (histopathology) ([2]; 1% and 10% CoCl2-NAC, any of the tested dose levels): no histopathologic lesions
test article-related morbidity or mortality ([2]; 1% and 10% CoCl2-NAC, intraprostatic, male rat): No test article-related morbidity or mortality
no-observed-adverse-effect-level (NOAEL) ([2]; single intra-prostatic administration, male rat, highest dose tested): 10 % CoCl2-NAC solution
test article-related adverse clinical signs ([2]; toxicology arm, 1% and 10% CoCl2-NAC): No test article-related adverse clinical signs
visualization of acrylic and glass hollow seeds containing the agent ([3]; 0.5-5 μL of aqueous solution (0.3-10 wt. %), phantom, 1.5-T MRI): well visualized
visualization inside the titanium seed ([3]; T1-weighted MRI, phantom): could not be visualized
signal on T1-weighted MRI inside polymer seeds ([3]; concentrations of 0.5-10%, in phantom): increased signal
signal on three-dimensional T1-weighted spoiled gradient recalled acquisition, compared with the various agents tested ([3]; in phantom): highest signal
peri-prostatic cobalt concentration by 60 minutes ([4]; high dose group (10%), 4 of 5 animals): not quantifiable
cobalt in kidney tissue ([4]; low dose group (1%)): No cobalt was measurable
cobalt in plasma ([4]; low dose group (1%)): no measurable cobalt

CC(C)(O)C(=O)Nc1ccc([N+](=O)[O-])c(C(F)(F)F)c1 [hydroxyflutamide]
effect on transcriptional activity of androgen receptor [5]: enhance the transcriptional activity

Reference: patent publication US9555135B2, “Cobalt-based MRI contrast agent and imaging system” (BOARD OF REGENTS, THE UNIVERSITY OF TEXAS SYSTEM, priority 2011, dated 2017)
